Test system: panel of nearly 500 cancer cell lines
Assay: Cancer Cell Line Encyclopedia profiling, 3-day CellTiter-Glo
Type: cell-based
Design: Amax: unit not given here

`CC(=O)c1c(C)c2cnc(Nc3ccc(N4CCNCC4)cn3)nc2n(C2CCCC2)c1=O` [Palbociclib, reference compound] was tested, and the Amax (769p (kidney)) was -52.63, the Amax (8305c (thyroid)) was -51.0145 and the Amax (8505c (thyroid)) was -0.08134. For the same compound, the EC50 (COV318) was over 8 µM, the EC50 (COV504) was over 8 µM and the EC50 (GLC82) was 0.00254 µM. For the same compound, the EC50 (HCC15) was over 8 µM, the EC50 (HEC-251) was over 8 µM and the EC50 (HEY A8) was 0.947 µM. For the same compound, the EC50 (Homo sapiens, 22Rv1) was 1.22 µM, the EC50 (Homo sapiens, 639-V) was over 8 µM and the EC50 (Homo sapiens, 769-P) was over 8 µM. For the same compound, the EC50 (Homo sapiens, 8305C) was 0.576 µM, the EC50 (Homo sapiens, 8505C) was over 8 µM and the EC50 (Homo sapiens, A 172) was over 8 µM. The EC50 (Homo sapiens, A204) was 0.407 µM, the EC50 (Homo sapiens, A253) was over 8 µM and the EC50 (Homo sapiens, A549) was 1.14 µM. For the same compound, the EC50 (Homo sapiens, A673) was over 8 µM, the EC50 (Homo sapiens, A2058) was over 8 µM and the EC50 (Homo sapiens, A2780) was 1.9 µM. It also gave an EC50 (Homo sapiens, A-375) of 2.72 µM, an EC50 (Homo sapiens, AMO1) of over 8 µM and an EC50 (Homo sapiens, AN3-CA) of 5.91 µM. The EC50 (Homo sapiens, ASPC1) was over 8 µM, the EC50 (Homo sapiens, AU565) was 0.993 µM and the EC50 (Homo sapiens, AZ-521) was over 8 µM. The EC50 (Homo sapiens, BFTC-909) was over 8 µM, the EC50 (Homo sapiens, BGC-823) was over 8 µM and the EC50 (Homo sapiens, BL-41) was over 8 µM. For the same compound, the EC50 (Homo sapiens, BT-20) was over 8 µM, the EC50 (Homo sapiens, BT-474) was 2.09 µM and the EC50 (Homo sapiens, BT-549) was over 8 µM. It also gave an EC50 (Homo sapiens, C2BBe1) of 1.73 µM, an EC50 (Homo sapiens, CAKI-2) of over 8 µM and an EC50 (Homo sapiens, CAL-27) of over 8 µM. The EC50 (Homo sapiens, CAL-85-1) was over 8 µM, the EC50 (Homo sapiens, CAMA-1) was over 8 µM and the EC50 (Homo sapiens, CHL-1) was over 8 µM. The EC50 (Homo sapiens, COLO 201) was 0.989 µM, the EC50 (Homo sapiens, COLO 205) was 1.71 µM and the EC50 (Homo sapiens, COLO 320) was over 8 µM. For the same compound, the EC50 (Homo sapiens, COLO-679) was over 8 µM, the EC50 (Homo sapiens, COR-L23) was over 8 µM and the EC50 (Homo sapiens, Calu-1) was over 8 µM. It also gave an EC50 (Homo sapiens, Calu-3) of over 8 µM, an EC50 (Homo sapiens, Capan-2) of over 8 µM and an EC50 (Homo sapiens, DBTRG-05MG) of over 8 µM. It also gave an EC50 (Homo sapiens, DMS-114) of 0.957 µM, an EC50 (Homo sapiens, DOV13) of over 8 µM and an EC50 (Homo sapiens, DU-145) of over 8 µM. For the same compound, the EC50 (Homo sapiens, Daoy) was over 8 µM, the EC50 (Homo sapiens, Detroit 562) was 1.94 µM and the EC50 (Homo sapiens, EBC-1) was 0.242 µM. For the same compound, the EC50 (Homo sapiens, EFE-184) was over 8 µM, the EC50 (Homo sapiens, EFM-19) was 0.565 µM and the EC50 (Homo sapiens, EFO-21) was over 8 µM. The EC50 (Homo sapiens, EFO-27) was over 8 µM, the EC50 (Homo sapiens, FaDu) was 2.3 µM and the EC50 (Homo sapiens, G-361) was over 8 µM. For the same compound, the EC50 (Homo sapiens, G-401) was 0.644 µM, the EC50 (Homo sapiens, GCIY) was over 8 µM and the EC50 (Homo sapiens, GMS-10) was 2.8 µM. The EC50 (Homo sapiens, HCC70) was over 8 µM, the EC50 (Homo sapiens, HCC78) was over 8 µM and the EC50 (Homo sapiens, HCC1187) was over 8 µM. The EC50 (Homo sapiens, HCC1569) was over 8 µM, the EC50 (Homo sapiens, HCC1806) was over 8 µM and the EC50 (Homo sapiens, HCC1954) was 0.597 µM. It also gave an EC50 (Homo sapiens, HCC2935) of over 8 µM, an EC50 (Homo sapiens, HCC4006) of 0.73 µM and an EC50 (Homo sapiens, HCT-15) of over 8 µM. The EC50 (Homo sapiens, HCT-116) was over 8 µM, the EC50 (Homo sapiens, HEC-1-A) was 0.764 µM and the EC50 (Homo sapiens, HEC-1B) was 2.77 µM. For the same compound, the EC50 (Homo sapiens, HEL 92.1.7) was over 8 µM, the EC50 (Homo sapiens, HGC-27) was 0.539 µM and the EC50 (Homo sapiens, HMCB) was over 8 µM. For the same compound, the EC50 (Homo sapiens, HPAC) was 0.69 µM, the EC50 (Homo sapiens, HSC-2) was over 8 µM and the EC50 (Homo sapiens, HT1197) was over 8 µM. The EC50 (Homo sapiens, HT-29) was 0.557 µM, the EC50 (Homo sapiens, HT-144) was over 8 µM and the EC50 (Homo sapiens, HT-1080) was over 8 µM. It also gave an EC50 (Homo sapiens, HT-1376) of over 8 µM, an EC50 (Homo sapiens, HepG2) of 0.819 µM and an EC50 (Homo sapiens, Hs 294T) of over 8 µM. It also gave an EC50 (Homo sapiens, Hs 683) of 3.62 µM, an EC50 (Homo sapiens, Hs 695T) of over 8 µM and an EC50 (Homo sapiens, Hs746T) of 0.231 µM. It also gave an EC50 (Homo sapiens, Hs-578T) of over 8 µM, an EC50 (Homo sapiens, HuCCT-1) of over 8 µM and an EC50 (Homo sapiens, HuH-1) of 1.38 µM. The EC50 (Homo sapiens, HuP-T3) was 1.91 µM, the EC50 (Homo sapiens, HuP-T4) was over 8 µM and the EC50 (Homo sapiens, HuT78) was over 8 µM. For the same compound, the EC50 (Homo sapiens, IGR-37) was over 8 µM, the EC50 (Homo sapiens, IGROV-1) was over 8 µM and the EC50 (Homo sapiens, IMR-32) was 0.69 µM. For the same compound, the EC50 (Homo sapiens, IPC-298) was over 8 µM, the EC50 (Homo sapiens, KALS-1) was over 8 µM and the EC50 (Homo sapiens, KARPAS-299) was over 8 µM. It also gave an EC50 (Homo sapiens, KARPAS-422) of over 8 µM, an EC50 (Homo sapiens, KMS-12-BM) of over 8 µM and an EC50 (Homo sapiens, KNS-42) of over 8 µM. For the same compound, the EC50 (Homo sapiens, KU812) was over 8 µM, the EC50 (Homo sapiens, KYSE-30) was over 8 µM and the EC50 (Homo sapiens, KYSE-410) was over 8 µM. It also gave an EC50 (Homo sapiens, KYSE-520) of over 8 µM, an EC50 (Homo sapiens, L-363) of 0.804 µM and an EC50 (Homo sapiens, LCLC-103H) of over 8 µM. For the same compound, the EC50 (Homo sapiens, LN-18) was over 8 µM, the EC50 (Homo sapiens, LN-229) was 1.48 µM and the EC50 (Homo sapiens, LOX IMVI) was over 8 µM. The EC50 (Homo sapiens, LS-123) was over 8 µM, the EC50 (Homo sapiens, LS-513) was over 8 µM and the EC50 (Homo sapiens, Lu-99) was 1 µM. The EC50 (Homo sapiens, M059J) was over 8 µM, the EC50 (Homo sapiens, MC116) was over 8 µM and the EC50 (Homo sapiens, MCF7) was over 8 µM. For the same compound, the EC50 (Homo sapiens, MDA-MB-157) was over 8 µM, the EC50 (Homo sapiens, MDA-MB-175-VII) was over 8 µM and the EC50 (Homo sapiens, MDA-MB-415) was 6.74 µM. It also gave an EC50 (Homo sapiens, MDA-MB-436) of over 8 µM, an EC50 (Homo sapiens, MDA-MB-453) of 3.41 µM and an EC50 (Homo sapiens, MDA-MB-468) of over 8 µM. For the same compound, the EC50 (Homo sapiens, MEG-01) was over 8 µM, the EC50 (Homo sapiens, MES-SA) was 0.795 µM and the EC50 (Homo sapiens, MFE-280) was over 8 µM. For the same compound, the EC50 (Homo sapiens, MG-63) was 0.532 µM, the EC50 (Homo sapiens, MIA PaCa-2) was over 8 µM and the EC50 (Homo sapiens, MINO) was 0.489 µM. It also gave an EC50 (Homo sapiens, MKN-7) of over 8 µM, an EC50 (Homo sapiens, MKN-45) of over 8 µM and an EC50 (Homo sapiens, MKN-74) of over 8 µM. It also gave an EC50 (Homo sapiens, MSTO-211H) of over 8 µM, an EC50 (Homo sapiens, Malme-3M) of 0.714 µM and an EC50 (Homo sapiens, NCI-H23) of over 8 µM. The EC50 (Homo sapiens, NCI-H28) was 1.98 µM, the EC50 (Homo sapiens, NCI-H211) was 0.877 µM and the EC50 (Homo sapiens, NCI-H226) was over 8 µM. For the same compound, the EC50 (Homo sapiens, NCI-H358) was 1.49 µM, the EC50 (Homo sapiens, NCI-H441) was 1.35 µM and the EC50 (Homo sapiens, NCI-H520) was 0.706 µM. For the same compound, the EC50 (Homo sapiens, NCI-H522) was over 8 µM, the EC50 (Homo sapiens, NCI-H647) was over 8 µM and the EC50 (Homo sapiens, NCI-H650) was over 8 µM. The EC50 (Homo sapiens, NCI-H661) was over 8 µM, the EC50 (Homo sapiens, NCI-H727) was over 8 µM and the EC50 (Homo sapiens, NCI-H747) was 3.94 µM. For the same compound, the EC50 (Homo sapiens, NCI-H810) was over 8 µM, the EC50 (Homo sapiens, NCI-H1048) was over 8 µM and the EC50 (Homo sapiens, NCI-H1092) was over 8 µM. It also gave an EC50 (Homo sapiens, NCI-H1355) of 1.06 µM, an EC50 (Homo sapiens, NCI-H1373) of over 8 µM and an EC50 (Homo sapiens, NCI-H1563) of over 8 µM. For the same compound, the EC50 (Homo sapiens, NCI-H1573) was 1.03 µM, the EC50 (Homo sapiens, NCI-H1581) was over 8 µM and the EC50 (Homo sapiens, NCI-H1648) was over 8 µM. For the same compound, the EC50 (Homo sapiens, NCI-H1650) was 2.37 µM, the EC50 (Homo sapiens, NCI-H1651) was 2.52 µM and the EC50 (Homo sapiens, NCI-H1666) was over 8 µM. The EC50 (Homo sapiens, NCI-H1693) was over 8 µM, the EC50 (Homo sapiens, NCI-H1694) was over 8 µM and the EC50 (Homo sapiens, NCI-H1792) was 1.5 µM. It also gave an EC50 (Homo sapiens, NCI-H1793) of 0.881 µM, an EC50 (Homo sapiens, NCI-H1944) of 2.85 µM and an EC50 (Homo sapiens, NCI-H1975) of over 8 µM. The EC50 (Homo sapiens, NCI-H2009) was over 8 µM, the EC50 (Homo sapiens, NCI-H2030) was over 8 µM and the EC50 (Homo sapiens, NCI-H2052) was 0.528 µM. For the same compound, the EC50 (Homo sapiens, NCI-H2087) was 0.238 µM, the EC50 (Homo sapiens, NCI-H2122) was 0.167 µM and the EC50 (Homo sapiens, NCI-H2170) was 1.54 µM. The EC50 (Homo sapiens, NCI-H2228) was over 8 µM, the EC50 (Homo sapiens, NCI-H2444) was over 8 µM and the EC50 (Homo sapiens, NCI-H2452) was over 8 µM. It also gave an EC50 (Homo sapiens, NCI-H3255) of over 8 µM, an EC50 (Homo sapiens, NCI-N87) of over 8 µM and an EC50 (Homo sapiens, NUGC-3) of 0.178 µM. It also gave an EC50 (Homo sapiens, NUGC-4) of 0.715 µM, an EC50 (Homo sapiens, OC-314) of over 8 µM and an EC50 (Homo sapiens, OCI-AML2) of 1.18 µM. It also gave an EC50 (Homo sapiens, OE33) of 2.02 µM, an EC50 (Homo sapiens, ONS-76) of 1.36 µM and an EC50 (Homo sapiens, OV-90) of over 8 µM. It also gave an EC50 (Homo sapiens, OVCAR-3) of over 8 µM, an EC50 (Homo sapiens, OVCAR-4) of over 8 µM and an EC50 (Homo sapiens, OVCAR-8) of over 8 µM. The EC50 (Homo sapiens, OVSAHO) was 0.613 µM.

Reference: publication PMC6219668 (Oncotarget, 2018)
